Earlier results on one compound are cited in US6346270B1, “Phenytoin therapy” (Alza Corporation, priority 1997, dated 2002).

SMILES strings stand for the structures.

For `O=C1NC(=O)C(c2ccccc2)(c2ccccc2)N1` [phenytoin], the “solubility in aqueous fluids” value is reported as “poorly soluble”.
